# From BindingDB's records for patent US10071965 (The State University of New York, 2018)
# Target: T1, Enoyl-[acyl-carrier-protein] reductase [NADPH] FabI (Staphylococcus aureus (strain MRSA252), UniProt Q6GI75)
# T1 sequence (Q6GI75 whole entry): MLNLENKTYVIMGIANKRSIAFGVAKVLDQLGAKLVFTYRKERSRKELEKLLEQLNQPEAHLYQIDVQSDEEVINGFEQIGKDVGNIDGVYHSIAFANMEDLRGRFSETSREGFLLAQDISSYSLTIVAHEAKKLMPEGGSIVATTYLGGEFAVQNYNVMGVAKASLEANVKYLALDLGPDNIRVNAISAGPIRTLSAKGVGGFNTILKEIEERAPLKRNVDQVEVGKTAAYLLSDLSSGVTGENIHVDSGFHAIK
# Assay: Tight-binding assay
# Details: pH 7.5
smiles,measurement,value
"Cc1ccc(Oc2ccccc2)c(O)c1 [US10071965, Compound PT53]",Ki,0.494 µM
